Results published in US20070167408A1, “NOVEL ALKYL PHOSPHOLIPID DERIVATIVES WITH REDUCED CYTOTOXICITY AND USES THEREOF” (ZENTARIS GmbH, priority 2005, published 2007).
Converted amounts (≈) assume the structure as drawn.

Columns and labels:
[1] = test system: Moraxella catarrhalis DMS 11994 (ATCC 43617); assay: Anti-bacterial bouillon microdilution assay (MIC), bacterium D; format: cell-based; settings: ATCC43617, 24 h
Summary of the method: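 Broth microdilution MIC per DIN 58940-5/-7. Twofold compound dilutions in water spanned 256 to 0.125 μg/ml in the test concentration series, with inocula of about 1×10^6 organisms/ml in strain-appropriate media. Growth was read as turbidity at 595 nm before and after incubation, against growth and sterile controls.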

[2] = test system: Streptococcus pneumoniae DSM 11967 (ATCC 49619); assay: Anti-bacterial bouillon microdilution assay (MIC), bacterium B; format: cell-based; settings: Streptococcus pneumoniae DSM 11967, 24 h
Description: (§1) Selected compounds of the invention were tested in a bouillon microdilution assay method according to the DIN 58940 (www.din.de) guidelines for determination of susceptibility of bacterial strains with regard to cell growth inhibition. The assay method quantifies bacterial cell growth which corresponds to the turbidity of the liquid culture medium by photometric measurement carried out at 595 nm.
(§2) The method of MIC determination was performed according to DIN 58940-5. The volumina were adapted according to the microdilution method as described in DIN 58940-7 guideline.
(§3) Dependent on water solubility, compounds of the invention were dissolved either in water or ethanol in a concentration of 10 mg/ml. Subsequently, the stock was further diluted in water to a concentration of 512 μg/ml. The following serial dilutions (factor 2) were performed in water resulting in the following […] testing concentrations: 256 μg/ml, 128 μg/ml, 64 μg/ml, 32 μg/ml, 16 μg/ml, 8 μg/ml, 4 μg/ml, 2 μg/ml, 1 μg/ml, 0.5 μg/ml, 0.25 μg/ml and 0.125 μg/ml. Diluted compounds of the invention were transferred in 100 μl volume to the microtiter plate wells.
(§4) Pre-cultures of bacteria were grown in appropriate liquid media (refer to ATCC webpage, www.atcc.org) and afterwards were inoculated in corresponding liquid medium. 100 μl of the inoculums [adjusted to an amount of app. 1×10^6 microorganisms per ml (range of 10^5-10^8 microorganisms per ml)] were added to each of the testing compound concentrations and cultivated under the appropriate conditions.
(§5) Before and after incubation, bacterial growth was determined by photometric analysis against a positive control containing growing bacteria without compound and a sterile/negative control containing only the medium.

[3] = test system: Bacteroides fragilis DSM 2151 (ATCC 25285); assay: Anti-bacterial bouillon microdilution assay (MIC), bacterium E; format: cell-based; settings: anaerob, 24 h
Description: as §1, §2, §3, §4, §5

[4] = test system: Enterococcus faecium DSM 20477 (ATCC 19434); assay: Anti-bacterial bouillon microdilution assay (MIC), bacterium C; format: cell-based; settings: Enterococcus faecium DSM 20477, 24 h
Description: as §1, §2
as §3, with “wells. […]” for “wells.”
as §5

[5] = test system: Streptococcus pneumoniae DSM 20566 (ATCC 33400); assay: Anti-bacterial bouillon microdilution assay (MIC), bacterium A; format: cell-based; settings: Streptococcus pneumoniae DSM 20566, 24 h
Description: as §1, §2, §3, §4, §5

Leishmaniasis = settings: clinical phase III trials, parenteral; cited from earlier work
[6] = test system: SKOV-3 (human ovary adenocarcinoma) cells; assay: XTT cytotoxicity assay, SKOV-3 cells; format: cell-based; settings: Homo sapiens, SK-OV-3, second set of experiments, read-out: SKOV-3 % INH [100 μM]
Description: On the first day of the experiment cells were harvested from exponential phase cultures by trypsination, counted and plated into 96 well flat-bottom micro titer plates depending on the cell line as listed below: [table] After a 24 h recovery to allow the cells to resume exponential growth, the test compounds were diluted immediately prior to use and transferred in 25 μl volume to the wells. Following 2 days of continuous drug exposure 50 μl of freshly prepared XTT-PMS solution {2% 0.386 mg/ml PMS (N-Methyl Dibenzopyrazine Methylsulphate; Sigma, Cat. No. […] Serva, Cat. No. 38450) in RPMI 1640 medium without phenol red} was added to the wells. To measure the proportion of living cells, the cells were incubated for 3 h with XTT-PMS reagent at 37° C., 5% CO2, humidified atmosphere allowing to form the formazan salt. […] Inhibition curves were generated and IC50 values calculated by using GraphPad Prism.

[7] = test system: PC3 (human prostate carcinoma) cells; assay: XTT cytotoxicity assay, PC3 cells; format: cell-based; settings: Homo sapiens, PC-3; 31.6 μM, second set of experiments; read-out: PC3 % INH [31.6 μM]
Summary of the method: (§6)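 Cells recovered 24 h after plating, then exposed to compounds for 48 h at 37 °C; one set used 10 semi-log concentrations from 100 μM, another 31.6 μM final for PC3 and RKOp21. XTT-PMS added for 3 h, formazan absorbance at 490 nm versus untreated cells; IC50 from inhibition curves.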

[8] = test system: RKOp21 (human colon adenocarcinoma) cells; assay: XTT cytotoxicity assay, RKOp21 cells; format: cell-based; settings: Homo sapiens; 31.6 μM, second set of experiments; read-out: RKOp21 % INH [31.6 μM]
Summary of the method: as §6

[9] = test system: PC3, RKOp21 and SKOV-3 cell lines; assay: XTT cytotoxicity assay, mean over all three cell lines; format: cell-based, human; settings: mean value over all three cell lines
Description: Following 2 days of continuous drug exposure 50 μl of freshly prepared XTT-PMS solution {2% 0.386 mg/ml PMS (N-Methyl Dibenzopyrazine Methylsulphate; Sigma, Cat. No. […] Serva, Cat. No. 38450) in RPMI 1640 medium without phenol red} was added to the wells. To measure the proportion of living cells, the cells were incubated for 3 h with XTT-PMS reagent at 37° C., 5% CO2, humidified atmosphere allowing to form the formazan salt. […] Inhibition curves were generated and IC50 values calculated by using GraphPad Prism. In the following table 7 cytotoxicity results (% inhibition of cell growth) obtained in the second set of experiments for selected compounds of the invention are presented in comparison to examples of the prior art (perifosine, miltefosine). The results presented are individual values for the respective cell line as well as the mean value over all three cell lines tested.

Compound	MIC [1] [µg/mL]	MIC [2] [µg/mL]	MIC [3] [µg/mL]	MIC [4] [µg/mL]	MIC [5] [µg/mL]	efficient in % of the cases (Leishmaniasis) [%]	inhibition at 100 µM [6] [%]	inhibition at 31.6 µM [7] [%]	inhibition at 31.6 µM [8] [%]	Mean % INH [9] [%]
CCCCCCCCCCCCCCCCOP(=O)([O-])OCC[N+](C)(C)c1ccccc1 [Compound 107, Phosphoric acid hexadecyl ester 2-(N-phenyl-N,N-dimethyl-amino)-ethyl ester]	4 (≈ 8.52 µM)	4 (≈ 8.52 µM)	64 (≈ 136 µM)	8 (≈ 17 µM)	8 (≈ 17 µM)	–	–	–	–	–
NC[C@@H]1O[C@H](O[C@H]2[C@@H](O)[C@H](O[C@@H]3[C@@H](O)[C@H](N)C[C@H](N)[C@H]3O[C@H]3O[C@H](CO)[C@@H](O)[C@H](O)[C@H]3N)O[C@@H]2CO)[C@H](N)[C@@H](O)[C@@H]1O [paromomycin, O-2-amino-2-deoxy-alpha-D-glucopyranosyl-(1-4)-O-[O-2,6-diamino-2,6-dideoxy-beta-L-idopyranosyl-(1-3)-beta-D-ribofuranosyl-(1-5)]-2-deoxy-D-streptamine]	–	–	–	–	–	95	–	–	–	–
CCCCCCCCCCCCCCCCOP(=O)([O-])OCC[N+]1(C)CCCCCC1 [Compound 89, Phosphoric acid hexadecyl ester 2-(1-methyl-azepan-1-yl)-ethyl ester]	4 (≈ 8.66 µM)	4 (≈ 8.66 µM)	–	–	8 (≈ 17.3 µM)	–	26.1	50.6	11.3	29.3
